# Source: patent US20250073229A1, “PHARMACEUTICAL COMPOSITION FOR PREVENTING AND/OR TREATING HEART FAILURE” (OSAKA UNIVERSITY, priority 2022, published 2025)
# System: left ventricular pressure-loaded model mice (TAC mice)
# Assay: Echocardiography in transverse aortic constriction (TAC) left ventricular pressure-loaded model mice
# Assay type: in vivo, C57BL/6 mice
# Procedure: Ten-week-old male C57BL/6 mice (about 25 g) were treated with transverse aortic constriction (TAC) to produce left ventricular pressure-loaded model mice (TAC mice). At 2 weeks after TAC (hypertrophic phase), an osmotic mini-pump (Alzet2006) was implanted subcutaneously, and continuous subcutaneous administration of Compound 011 or a vehicle (a solution obtained by mixing dimethyl sulfoxide and polyethylene glycol 300 in a weight ratio of 1:1) was started at a dose of 5 mg/kg/day. The left ventricular wall thickness (IVS), left ventricular end-diastolic diameter (LVDd), left ventricular fractional shortening (LVFS), and left ventricular ejection fraction (LVEF) were observed and evaluated by echocardiography every two weeks after the start of administration (Compound 011 group: 11 animals; vehicle group: 9 animals). In advance, Compound 011 was administered to non-TAC-treated mice at 5 mg/kg/day with an osmotic mini-pump (Alzet2006) in the same manner, and the blood level (tail vein blood sample) was measured at 2, 4, and 6 weeks after administration and the body blood pressure was measured at 2 weeks after administration to thus confirm that the dose of 5 mg/kg/day could be used for TAC mice.
# [1] = 8 weeks after TAC (6 weeks after start of administration), 5 mg/kg/day continuous subcutaneous by osmotic mini-pump, p<0.05 vs. vehicle
# [2] = 8 weeks after TAC, 5 mg/kg/day continuous subcutaneous
structure (smiles),measurement,setting,value
"O=C(O)c1cnc(N2CCN(c3noc4cccc(C(F)(F)F)c34)CC2)c(Cl)c1 [Compound 011, 5-Chloro-6-(4-(4-(trifluoromethyl)benzo[d]isoxazol-3-yl)piperazin-1-yl)nicotinic acid]",progressive deterioration of LVFS and LVEF,"5 mg/kg/day continuous subcutaneous, vs. vehicle group",significantly suppressed
same,LVEF (left ventricular ejection fraction),[1],80.2±2.7%
same,left ventricular fractional shortening (LVFS) at 8 weeks after TAC,[1],48.8±2.6%
same,"interventricular septum (IVS), difference vs. vehicle group",[2],no significant difference
same,"left ventricular end-diastolic diameter (LVDd), difference vs. vehicle group",[2],no significant difference
